Calls of active or inactive are those of the source. How the calls were made is not given here.
Key:
[1] = growth inhibition of yeast vps1Δ mutant, dose response, S. cerevisiae, background strain comparison (AID 790); conditions: S. cerevisiae vps1Δ mutant growth inhibition; measured here: background strain growth inhibition
[2] = tested on: S. cerevisiae vps1Δ mutant growth inhibition; assay: as above

Compound: N#Cc1cn(-c2ccccc2)nc1-c1cc2ccccc2oc1=O
- IC50 [1]: > 10 µM
- IC50 [2]: > 10 µM (inactive)

Compound: COc1ccc(NC(=S)NC(NC(=O)c2ccc(Cl)cc2Cl)C(Cl)(Cl)Cl)c([N+](=O)[O-])c1 (stereo unspecified)
- IC50 [1]: > 10 µM
- IC50 [2]: > 10 µM (inactive)

Compound: Cc1cc(C)nc(N/N=C/C(Cl)=C/c2ccccc2)n1
- IC50 [1]: > 10 µM
- IC50 [2]: > 10 µM (inactive)

Compound: COc1cccc(-c2cc(C(=O)N3CCN(C(c4ccccc4)c4ccccc4)CC3)no2)c1
- IC50 [1]: > 10 µM
- IC50 [2]: > 10 µM (inactive)

Compound: Cc1ccc(C(C)C)c(OCCCN2CC(C)OC(C)C2)c1 (stereo unspecified)
- IC50 [1]: > 10 µM
- IC50 [2]: > 10 µM (inactive)

Compound: Cc1cc(NCCCN2CCOCC2)n2ncc(-c3ccc(Cl)cc3)c2n1
- IC50 [1]: > 10 µM
- IC50 [2]: > 10 µM (inactive)

Compound: COc1ccc(/C=C2\SC(=S)N(NC(=O)c3csc4c3CCCC4)C2=O)cc1
- IC50 [1]: > 10 µM
- IC50 [2]: > 10 µM (inactive)

Compound: CCCc1cc(NCCCCO)n2c(nc3ccccc32)c1C#N
- IC50 [1]: > 10 µM
- IC50 [2]: > 10 µM (inactive)

Compound: CCC(=O)c1ccc(N2CCN(C(=O)c3ccc(Br)cc3)CC2)c(F)c1
- IC50 [1]: > 10 µM
- IC50 [2]: > 10 µM (inactive)

Compound: Cc1nc(NC(=O)c2ccccc2)sc1-c1csc(Nc2ccc(F)cc2)n1
- IC50 [1]: > 10 µM

Compound: CCCCCCCCNc1ncnc2ccccc12
- IC50 [1]: 14.8 µM
- IC50 [2]: > 10 µM (inactive)

Compound: CCSc1nnc(NC(=O)NCC(F)(F)F)s1
- IC50 [1]: > 10 µM
- IC50 [2]: > 10 µM (inactive)

Compound: COc1ccc(-c2cc(N)n(S(=O)(=O)c3c(F)c(F)c(F)c(F)c3F)n2)cc1OC
- IC50 [1]: 1.08 µM
- IC50 [2]: 2.29 µM (inactive)

Compound: Clc1ccc(Cn2nnc(-c3ccc(CN4CCOCC4)cc3)n2)cc1
- IC50 [1]: > 10 µM
- IC50 [2]: > 10 µM (inactive)

Compound: Cc1cc([N+](=O)[O-])c(-c2ccc(/C=N/n3cnnc3)o2)cc1Cl
- IC50 [1]: 0.134 µM
- IC50 [2]: 0.115 µM

Compound: CCC(C)c1ccc(OCCCCN2CCOCC2)cc1 (stereo unspecified)
- IC50 [1]: > 10 µM
- IC50 [2]: > 10 µM (inactive)

Compound: O=C(NC1CCCC1)C(c1ccsc1)N(C(=O)Cc1cccs1)c1ccc(F)cc1 (stereo unspecified)
- IC50 [1]: > 10 µM
- IC50 [2]: > 10 µM (inactive)

Compound: CC1CCCN(CCOCCOc2ccc(Cl)cc2Br)C1 (stereo unspecified)
- IC50 [1]: > 10 µM
- IC50 [2]: > 10 µM (inactive)

Compound: O=C(NCc1ccc2c(c1)OCO2)c1ccc(CS(=O)(=O)c2cccc(C(F)(F)F)c2)o1
- IC50 [1]: > 10 µM
- IC50 [2]: > 10 µM (inactive)

Compound: O=C(COc1ccc(Cl)cc1)Nc1ccc(N2CCN(C(=O)c3ccco3)CC2)cc1
- IC50 [1]: > 10 µM
- IC50 [2]: > 10 µM (inactive)

Compound: CCN(CC)CCCN(Cc1cc2cc3c(cc2[nH]c1=O)OCCO3)C(=O)Nc1ccc(F)cc1
- IC50 [1]: > 10 µM
- IC50 [2]: > 10 µM (inactive)

Compound: O=C(OCn1ncc(Cl)c(Cl)c1=O)c1cccc(C(F)(F)F)c1
- IC50 [1]: 3.51 µM
- IC50 [2]: 3.35 µM

Compound: COc1ccc(C2CC(=O)C3=C(C2)NC(C)=C(C(=O)Nc2ccccc2C)C3c2coc3ccc(C)cc3c2=O)cc1OC (stereo unspecified)
- IC50 [1]: > 10 µM
- IC50 [2]: > 10 µM (inactive)

Compound: CCOC(=O)c1c(CN2CCCCC2C)oc2ccc(OC)cc12 (stereo unspecified)
- IC50 [1]: > 10 µM
- IC50 [2]: > 10 µM (inactive)

Compound: CCOc1nc(SCCOc2ccccc2)nc(N(C)C)n1
- IC50 [2]: > 10 µM (inactive)

Compound: CCN(CC)C(=O)C1CCN(Cc2ccc(Br)cc2)CC1
- IC50 [1]: > 10 µM
- IC50 [2]: > 10 µM (inactive)

Compound: Nc1ccc(Oc2ccc3nc(-c4ccccc4)c(-c4ccccc4)nc3c2)cc1
- IC50 [1]: 1.21 µM
- IC50 [2]: 2.91 µM (inactive)

Compound: OC(COCc1ccc(Cl)cc1)CN1CC=C(c2ccccc2)CC1 (stereo unspecified)
- IC50 [1]: 20.8 µM

Compound: C=CCc1ccc(OCC(O)CN2CCC(Cc3ccccc3)CC2)c(OC)c1 (stereo unspecified)
- IC50 [1]: 19.1 µM
- IC50 [2]: 19.4 µM (inactive)

Compound: COc1ccccc1N1CCN(CC(O)c2ccc3cc[nH]c3c2)CC1 (stereo unspecified)
- IC50 [1]: > 10 µM
- IC50 [2]: > 10 µM (inactive)

Compound: N=c1nc(N)nc2n1NC(c1ccc(F)cc1)=CS2
- IC50 [1]: > 10 µM
- IC50 [2]: > 10 µM (inactive)

Compound: O=C(CCl)c1ccc(Cc2ncc(C(F)(F)F)cc2Cl)s1
- IC50 [1]: 8.68 µM
- IC50 [2]: 9.7 µM (inactive)

Compound: O=C(Cn1nnc(-c2ccc(S(=O)(=O)N3CCCC3)cc2)n1)NCC1CCCO1 (stereo unspecified)
- IC50 [1]: > 10 µM
- IC50 [2]: > 10 µM (inactive)

Compound: O=C(NC(C(=O)c1ccccc1)N1CCCCC1)c1ccccc1 (stereo unspecified)
- IC50 [1]: > 10 µM
- IC50 [2]: > 10 µM (inactive)

Compound: Cc1cc(OCC(F)(F)C(F)(F)C(F)(F)C(F)(F)C(F)(F)C(F)F)nc(N)n1
- IC50 [1]: > 10 µM
- IC50 [2]: > 10 µM (inactive)

Compound: O=C(c1ccc(Cl)cc1Cl)N1CCC(c2nc3c(nnn3Cc3ccco3)c(=O)[nH]2)CC1
- IC50 [1]: > 10 µM
- IC50 [2]: > 10 µM (inactive)

Compound: Clc1ccc(-c2n[nH]c3c2CCC3)c(Cl)c1
- IC50 [1]: 0.518 µM
- IC50 [2]: 0.219 µM
